Twelve compounds from PMC8780828 (Viruses, 2021) can be followed below.

Entries after “also recorded” stand apart in the source; their conditions may differ. Read-outs that look alike come from different tables or passages of the source. A value given as a limit tells only on which side of the number the result lay.

Data set [1] in a line: in vitro. The following applies: human.
Data set [2] in a line: in vitro. The note with it: human. The source holds these as a separate data set.
The subject of data set [3] is NL4-3ΔEnv-NanoLuc/SARS-CoV-2. The data set can be described thus: organism not typed. The class given is cell-based. The note with it: for IC50: read-out: IC50 (range over the three cell lines).
Data set [4] has as its system pseudovirus NL4-3ΔEnv-NanoLuc/SARS-CoV-2. Put plainly: organism not typed. The class given is cell-based. The following applies: 293T/ACE2.
Data set [5] shares this test system. Put plainly: organism not typed. The class given is cell-based. The following applies: HT-1080; n=3.
Data set [6] in a line: in vitro. The note with it: both, human, microsomes, pH 7.4.
Data set [7] concerns pseudovirus NL4-3ΔEnv-NanoLuc/SARS-CoV-2. Put plainly: SARS-CoV-2 pseudovirus assay with pre-treated 293T/ACE2 cells. The class given is cell-based. The note with it: 293T/ACE2 cells pre-treated with compound 30 min before infection.
For data set [8], the system named is pseudovirus NL4-3ΔEnv-NanoLuc/SARS-CoV. The data set can be described thus: microbe, parasite or virus in culture. The class given is cell-based. The note with it: Severe acute respiratory syndrome coronavirus, HT-1080; n=3; read-out: IC50.
The test system is the same in data set [9]. Put plainly: microbe, parasite or virus in culture. The class given is cell-based. The note with it: Severe acute respiratory syndrome coronavirus, 293T/ACE2; n=3.
For data set [10], the system named is pseudovirus NL4-3ΔEnv-NanoLuc/MERS-CoV. Put plainly: microbe, parasite or virus in culture. The class given is cell-based. The following applies: Middle East respiratory syndrome-related coronavirus, Huh-7; n=3; read-out: IC50.
The subject of data set [11] is pseudovirus NL4-3ΔEnv-NanoLuc/SARS-CoV-2. The data set can be described thus: organism not typed. The following applies: A549-ACE2; n=3. The class given is cell-based.
For data set [12], the system named is control pseudovirus NL4-3.Luc.R-E-/A-MLV. Put plainly: Control pseudovirus A-MLV assay in 293T/ACE2 cells. The class given is cell-based, amphotropic murine leukemia virus (A-MLV). The note with it: NL43, 293T/ACE2.
Data set [13] has as its system SARS-CoV-2 (US_WA-1/2020). The class given is cell-based.
The test system of data set [14] is pseudovirus NL4-3ΔEnv-NanoLuc/SARS-CoV. The data set can be described thus: microbe, parasite or virus in culture. The class given is cell-based. The following applies: Severe acute respiratory syndrome coronavirus, A549-ACE2; n=3; read-out: IC50.
Data set [15] concerns pseudovirus NL4-3ΔEnv-NanoLuc/MERS-CoV. The data set can be described thus: microbe, parasite or virus in culture. The class given is cell-based. The note with it: Middle East respiratory syndrome-related coronavirus, MRC5; n=3; read-out: IC50.
In another data set the test system is Trypsin. The class given is biochemical.
For data set [16], the target named is malate dehydrogenase (MDH). The class given is biochemical.
The next data set concerns MERS-CoV pseudovirus. Put plainly: microbe, parasite or virus in culture. The class given is cell-based.
The next data set deals with β-lactamase. The class given is biochemical.

Turning to `O=C1NC(=S)S/C1=C\c1ccc(-c2ccc(Cl)c(C(=O)O)c2)o1` [NBCoV17], the CC50 in “in vitro [1]” and in the data set “in vitro [2]” was over 100000 nM in each case. Also, the “antiviral activity against SARS-CoV-2 pseudovirus” value (“antiviral activity” for short) in data set [3] was “no antiviral activity; also recorded: did not show any inhibitory activities”. In addition, the IC50 in data set [4] and in data set [5] was over 2000 nM in each case.

Turning to `C[C@]12CC[C@H]3[C@@H](CCC4=CC(=O)CC[C@@]43C)[C@@H]1CC[C@@H]2O` [Testosterone, reference compound], in “in vitro [6]”, the half-life – broadly, how long it takes for the measured level to halve – was 11.3 min and the intrinsic clearance (microsomal CLint) – broadly, the rate of metabolic loss divided by the concentration – stood at 122 µL/min/mg.

For the compound `O=C(O)c1cc(-c2ccc(/C=C3\SC(=S)N(CCc4ccccc4)C3=O)o2)ccc1Br` [NBCoV8], the IC50 (commonly the concentration needed to halve the response being measured) in data set [7] was over 2000 nM; in data set [8], 225 ± 26 nM; in data set [9] it was 128 ± 6.7 nM; in data set [10], 509 ± 43 nM; in data set [11], 254 ± 27 nM; in [12] it was over 2000 nM. Besides, the IC50 in data set [14] came out at 700 ± 70 nM; in data set [4], 65.8 ± 6.2 nM; in data set [5], 94 ± 9 nM; in [15], 559 ± 66 nM. For the same compound, the “IC100 (range of IC100 values detected in the three cell lines)” value in data set [3] lay in the range of 1 to 2.5 µM. In [13], this compound registered an IC100 of over 10 µM.

For the compound `Cc1c(C(=O)O)cccc1-c1ccc(/C=C2\SC(=S)N(CCc3ccccc3)C2=O)o1` [NBCoV5], the IC50 in [7] was over 2000 nM; with Trypsin it was over 2000 nM; in data set [16], over 2000 nM; in data set [8], 1760 ± 330 nM; in data set [9], 1850 ± 179 nM; in data set [10] it was over 2000 nM. For the same compound, the IC50 is over 2000 nM in data set [11]; over 2000 nM in data set [12]; over 2000 nM against β-lactamase; over 2000 nM in data set [14]; 1200 ± 240 nM in data set [4]; 1050 ± 252 nM in data set [5]. The IC50 in data set [15] is over 2000 nM. For the same compound, the “IC100 (range of IC100 values detected in the three cell lines)” value in [3] is given as over 2 µM. Moreover, the MERS-CoV inhibitory activity result in the data set on MERS-CoV pseudovirus is “no MERS-CoV inhibitory activity”. In [13], this compound gave an IC100 of over 10 µM.

Consider `Cc1c(C(=O)O)cncc1-c1ccc(/C=C2\SC(=S)N(CCc3ccccc3)C2=O)o1` [NBCoV9], for which the IC50 in data set [7] is over 2000 nM; in data set [8] it was 246 ± 10 nM; in [9], 217 ± 22 nM; in data set [10] it was 214 ± 23 nM; in the data set with MERS-CoV pseudovirus (Middle East respiratory syndrome-related coronavirus), about 200 nM; in [11] it was 596 ± 42 nM. For the same compound, the IC50 is 1630 ± 118 nM in data set [12]; 350 ± 15 nM in [14]; 342 ± 46 nM in [4]; 365 ± 73 nM in data set [5]; 232 ± 17 nM in [15]. Moreover, the “IC100 (range of IC100 values detected in the three cell lines)” value in data set [3] was 2 to 3 µM. The IC100 in data set [13] is given as over 10 µM.

For `O=C(O)c1cc(-c2ccc(/C=C3\SC(=S)N(CCc4ccccc4)C3=O)o2)ccc1F` [NBCoV3], the IC50 in [7] is over 2000 nM; in the data set with Trypsin it was over 2000 nM; in data set [16] it was over 2000 nM; in [8] it was 25.7 ± 0.6 nM; in [9], 17.8 ± 4 nM; in [10] it was 158 ± 14 nM. For the same compound, the IC50 in data set [3] is 60.1 to 120 nM; in [11] it was 120 ± 5 nM; in [12], 960 ± 57 nM; against β-lactamase it was over 2000 nM; in data set [14], 157 ± 12.5 nM; in [4], 60.1 ± 8.5 nM. Also, the IC50 in data set [5] is 64 ± 18 nM; in data set [15], 123 ± 17 nM. Besides, the “IC100 (range of IC100 values detected in the three cell lines)” value in data set [3] lay in the range of 0.5 to 1.2 µM. For the same compound, in data set [13], the IC100 is listed as over 10 µM.

Take `O=C1NC(=S)S/C1=C\c1ccc(-c2ccc(C(=O)O)cc2)o1` [NBCoV34]: the CC50 was about 100000 nM in “in vitro [1]” and 83000 ± 4000 nM in the data set “in vitro [2]”. The IC50 (with Trypsin; in [16]; against β-lactamase; in [4]; in data set [5]) was over 2000 nM each time. Also, the “antiviral activity” value in data set [3] is listed as “no antiviral activity; also recorded: no inhibitory activity”.

For `O=C1C(=Cc2ccc(-c3ccc(Cl)cc3)o2)SC(=S)N1CCc1ccccc1` [NBCoV15, 5-((5-(4-chlorophenyl)furan-2-yl)methylene)-3-phenethyl-2-thioxothiazolidin-4-one], in [3], the “antiviral activity” value was “virtually no inhibition; also recorded: no antiviral activity; also recorded: no antiviral potency”. For the same compound, the IC50 in data set [4] and in data set [5] was over 2000 nM throughout.

On to `Cc1ccc(-c2ccc(/C=C3\SC(=S)N(CCc4ccccc4)C3=O)o2)cc1C(=O)O` [NBCoV4], for which the half-maximal inhibitory concentration (IC50) in data set [7] was over 2000 nM; in the data set on Trypsin it was over 2000 nM; in [16], over 2000 nM; in data set [8] it was 54 ± 3.5 nM; in [9] it was 80 ± 2 nM; in data set [10], 131 ± 6 nM. The IC50 in [3] was 26 to 73 nM; in data set [11], 73 ± 4.1 nM; in data set [12], 1620 ± 115 nM; on β-lactamase, over 2000 nM; in [14], 100 ± 13 nM; in data set [4], 26 ± 1 nM. In addition, the figures for the IC50 in data set [5] and in [15] were 47.7 ± 16 nM and 80 ± 18 nM, respectively. For the same compound, in data set [3], the “IC100 (range of IC100 values detected in the three cell lines)” value was 0.3 to 1 µM. Moreover, in data set [13], the IC100 is reported as over 10 µM.

Turning to `CCc1ccc(-c2ccc(/C=C3\SC(=S)N(CCc4ccccc4)C3=O)o2)cc1C(=O)O` [NBCoV6], the IC50 in data set [7] is over 2000 nM; in data set [8] it was 133 ± 9.5 nM; in [9], 175 ± 7 nM; in data set [10] it was 569 ± 31 nM; in data set [11], 613 ± 72 nM; in data set [12], over 2000 nM. The IC50 in data set [14] is 867 ± 62 nM; in [4], 185 ± 5.8 nM; in data set [5], 245 ± 5 nM; in data set [15], 945 ± 77 nM. Besides, in data set [3], the “IC100 (range of IC100 values detected in the three cell lines)” value lay within 1 to 3 µM. The compound further displayed an IC100 in data set [13] of over 10 µM.

Take `C#CCN1C(=O)/C(=C/c2ccc(-c3ccc(Cl)c(C(=O)O)c3)o2)SC1=S` [NBCoV28]: the CC50 in the data set “in vitro [1]” is 92000 ± 3000 nM; in “in vitro [2]”, over 100000 nM. Further, the “antiviral activity” value in data set [3] is on record as “no antiviral activity; also recorded: did not show any inhibitory activities”. The IC50 in data set [4] and in data set [5] was over 2000 nM each time.

For the compound `O=C(O)c1cccc(-c2ccc(/C=C3\SC(=S)N(CCc4ccccc4)C3=O)o2)c1F` [NBCoV7], the IC50 was over 2000 nM in [7]; 52 ± 8.9 nM in data set [8]; 111 ± 1.7 nM in data set [9]; 933 ± 153 nM in [10]; 416 ± 25 nM in data set [11]; over 2000 nM in data set [12]. For the same compound, the IC50 in data set [14] was 271 ± 76 nM; in data set [4] it was 298 ± 60 nM; in data set [5], 290 ± 57 nM; in data set [15] it was 927 ± 63.5 nM. Moreover, the “IC100 (range of IC100 values detected in the three cell lines)” value in data set [3] fell in the range of 1 to 3 µM. The same compound had an IC100 in data set [13] of over 10 µM.
